Drawing on patent publication US7951814B2, “Quinazolinedione derivatives as TRPA1 modulators” (Glenmark Pharmaceuticals, S.A., priority 2008, dated 2011), this text covers inhibition and IC50 for 23 molecules.

In the assay the target is T1, Human TRPA1 expressing CHO cells (Homo sapiens, UniProt O75762).
T1 construct: expressed in transfected cells; host or cells: CHO cells (under G-418 selection)
Description: 45Calcium uptake assay: inhibition of AITC induced cellular uptake of radioactive calcium. The conditions noted are these: AITC 30 μM, human TRPA1 CHO cells; for inhibition at 1 µM: 1.0 μM test compound, read-out: Percentage inhibition at 1.0 μM; for inhibition at 10 µM: 10.0 μM test compound, read-out: Percentage inhibition at 10.0 μM; for IC50: read-out: IC50 value (range). Format: cell-based. How it is done: The illustrative examples of the present invention are screened for TRPA1 activity according to a modified procedure described in (a) Tóth, A. et al. Life Sciences (2003), 73, 487-498. ([…]. et al. Proc. Natl. Acad. Sci. U.S.A., (2007), 104, 13525-13530. The screening of the compounds can be carried out by other methods and procedures known to persons skilled in the art. Screening for TRPA1 Antagonist Using the ^45Calcium Uptake Assay The inhibition of TRPA1 receptor activation was measured as inhibition of allyl isothiocyanate (AITC) induced cellular uptake of radioactive calcium. […] Final concentration of DMSO in the reaction was 0.5% (v/v). […] Cells were seeded 24 h prior to the assay in 96 well plates so as to get 50,000 cells per well on the day of experiment. Cells were treated with test compounds for 10 min followed by addition of AITC at a final concentration of 30 μM and 5 μCi/ml ^45Ca^+2 for 3 min. […] Radioactivity in the lysate was measured in Packard Top count after addition of liquid scintillant. Concentration response curves were plotted as a % of maximal response obtained in the absence of test antagonist. IC50 value was calculated from concentration response curve by nonlinear regression analysis using GraphPad PRISM software.

The structures appear in SMILES notation. Bounds are passed on as bounds.

T1 sequence (O75762 whole entry): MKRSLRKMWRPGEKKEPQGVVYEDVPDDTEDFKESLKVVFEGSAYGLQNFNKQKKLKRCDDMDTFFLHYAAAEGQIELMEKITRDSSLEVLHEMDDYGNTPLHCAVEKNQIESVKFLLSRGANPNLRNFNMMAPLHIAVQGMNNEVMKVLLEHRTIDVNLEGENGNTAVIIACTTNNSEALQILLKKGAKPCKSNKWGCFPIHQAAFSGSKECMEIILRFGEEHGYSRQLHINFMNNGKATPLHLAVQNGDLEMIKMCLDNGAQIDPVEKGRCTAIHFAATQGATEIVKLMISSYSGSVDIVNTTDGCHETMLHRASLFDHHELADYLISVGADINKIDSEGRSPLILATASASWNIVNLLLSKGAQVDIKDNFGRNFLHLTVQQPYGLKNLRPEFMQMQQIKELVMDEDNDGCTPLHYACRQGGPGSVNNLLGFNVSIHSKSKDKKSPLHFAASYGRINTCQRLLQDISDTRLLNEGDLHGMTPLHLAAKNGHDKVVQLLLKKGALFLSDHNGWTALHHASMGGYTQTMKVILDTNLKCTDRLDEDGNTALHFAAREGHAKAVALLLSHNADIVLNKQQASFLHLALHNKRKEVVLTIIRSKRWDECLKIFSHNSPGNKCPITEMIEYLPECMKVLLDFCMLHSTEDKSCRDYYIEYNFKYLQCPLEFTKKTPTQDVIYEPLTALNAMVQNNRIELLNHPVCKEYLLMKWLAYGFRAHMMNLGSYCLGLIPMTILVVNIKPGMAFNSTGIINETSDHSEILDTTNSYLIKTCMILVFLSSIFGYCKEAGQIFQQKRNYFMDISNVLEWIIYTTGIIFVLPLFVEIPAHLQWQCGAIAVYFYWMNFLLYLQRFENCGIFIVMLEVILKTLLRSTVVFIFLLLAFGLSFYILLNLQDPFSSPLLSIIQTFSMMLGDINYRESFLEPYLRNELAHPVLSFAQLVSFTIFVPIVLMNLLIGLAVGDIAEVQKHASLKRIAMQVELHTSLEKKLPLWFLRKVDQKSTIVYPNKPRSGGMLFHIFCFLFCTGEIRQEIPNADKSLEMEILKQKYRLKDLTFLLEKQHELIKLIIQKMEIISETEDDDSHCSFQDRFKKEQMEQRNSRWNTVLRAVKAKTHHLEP

On to `Cn1c(=O)c2c(CC(=O)Nc3cccc(-c4ccc(C(F)(F)F)cc4)n3)cccc2n(C)c1=O` [Example 6, N1-[6-(4-Trifluoromethylphenyl)-2-pyridyl]-2-(1,3-dimethyl-2,4-dioxo-1,2,3,4-tetrahydro-5-quinazolinyl)acetamide], for which the inhibition (in general, the percentage by which the read-out fell short of the control) at 1 µM amounted to 71.3% and the inhibition at 10 µM was determined as 88.2%.
Turning to `Cn1c(=O)c2c(CC(=O)Nc3nc(-c4cc(F)c(Cl)cc4Cl)cs3)cccc2n(C)c1=O` [Example 63, N1-[4-(2,4-Dichloro-5-fluorophenyl)-1,3-thiazol-2-yl]-2-(1,3-dimethyl-2,4-dioxo-1,2,3,4-tetrahydro-5-quinazolinyl)acetamide], the inhibition at 1 µM was 87.1%; the inhibition at 10 µM amounted to 96.9%; the IC50 – broadly, the concentration needed to halve the response being measured – was above 100 nM.
Take `Cn1c(=O)c2c(CC(=O)Nc3nc(-c4c(F)cccc4F)cs3)cccc2n(C)c1=O` [Example 33, N1-[4-(2,6-Difluorophenyl)-1,3-thiazol-2-yl]-2-(1,3-dimethyl-2,4-dioxo-1,2,3,4-tetrahydro-5-quinazolinyl)acetamide]: the inhibition at 1 µM was 50.4% and the inhibition at 10 µM was determined as 79.8%.
For the molecule `Cn1c(=O)c2c(CC(=O)Nc3cc(-c4ccc(Cl)cc4)n[nH]3)cccc2n(C)c1=O` [Example 79, N1-[3-(4-Chlorophenyl)-1H,5-pyrazolyl]-2-(1,3-dimethyl-2,4-dioxo-1,2,3,4-tetrahydro-5-quinazolinyl)acetamide], the inhibition at 1 µM came out at 3.81% and the inhibition at 10 µM amounted to 8.12%.
The like results for `Cn1c(=O)n(CC2CC2)c(=O)c2c(CC(=O)Nc3nc(-c4ccc(C(C)(C)C)cc4)cs3)cccc21` [Example 27, N1-[4-(4-tert-Butylphenyl)-1,3-thiazol-2-yl]-2-(1-methyl-3-cyclopropylmethyl-2,4-dioxo-1,2,3,4-tetrahydro-5-quinazolinyl)acetamide] were, in that order, 17.2% and 29.6%.
The matching figures for `Cn1c(=O)c2c(CC(=O)Nc3ccc(-c4ccc(Br)cc4)cc3)cccc2n(C)c1=O` [Example 2, N1-[4-(4-Bromophenyl)phenyl]-2-(1,3-dimethyl-2,4-dioxo-1,2,3,4-tetrahydro-5-quinazolinyl)acetamide]: 25.3% and 50.8%.
Turning to `Cn1c(=O)c2c(CC(=O)Nc3nc(-c4ccc(C(C)(C)C)cc4)cs3)cccc2n(C)c1=O` [Example 20, N1-[4-(4-tert-Butylphenyl)-1,3-thiazol-2-yl]-2-(1,3-dimethyl-2,4-dioxo-1,2,3,4-tetrahydro-5-quinazolinyl)acetamide], the inhibition at 1 µM is 98.9%, the inhibition at 10 µM is 99.8% and the IC50 fell in the range of 50.1 to 100 nM.
Regarding `Cn1c(=O)c2c(CC(=O)Nc3nc(-c4cn(C)c5ccccc45)cs3)cccc2n(C)c1=O` [Example 74], the inhibition at 1 µM amounted to 96.3%, the inhibition at 10 µM is 97.7% and the IC50 was above 100 nM.
Turning to `Cn1c(=O)c2c(CC(=O)Nc3nc(-c4cc(F)cc(F)c4)cs3)cccc2n(C)c1=O` [Example 34, N1-[4-(3,5-Difluorophenyl)-1,3-thiazol-2-yl]-2-(1,3-dimethyl-2,4-dioxo-1,2,3,4-tetrahydro-5-quinazolinyl)acetamide], the inhibition at 1 µM was determined as 15.8% and the inhibition at 10 µM was determined as 85%.
Regarding `Cn1c(=O)c2c(CC(=O)Nc3nc(-c4c(Cl)ccc(F)c4Cl)cs3)cccc2n(C)c1=O` [Example 64, N1-[4-(2,6Dichloro-3-fluorophenyl)-1,3-thiazol-2-yl]-2-(1,3-dimethyl-2,4-dioxo-1,2,3,4-tetrahydro-5-quinazolinyl)acetamide], the inhibition at 1 µM is 11.5% and the inhibition at 10 µM came to 27%.
Consider `Cc1ccc(-c2csc(NC(=O)Cc3cccc4c3c(=O)n(C)c(=O)n4C)n2)cc1` [Example 24, N1-[4-(4-Methylphenyl)-1,3-thiazol-2yl]-2-(1,3-dimethyl-2,4-dioxo-1,2,3,4-tetrahydro-5-quinazolinyl)acetamide], for which the inhibition at 1 µM turned out to be 83.9%, the inhibition at 10 µM amounted to 96.8% and the IC50 is 50.1 to 100 nM.
As to `Cn1c(=O)c2c(CC(=O)Nc3nc(-c4ccccc4)cs3)cccc2n(C)c1=O` [Example 8, N1-[4-phenyl-1,3-thiazol-2-yl]-2-(1,3-dimethyl-2,4-dioxo-1,2,3,4-tetrahydro-5-quinazolinyl)acetamide], the inhibition at 1 µM amounted to 52.9% and the inhibition at 10 µM amounted to 79.9%.
Take `Cn1c(=O)c2c(CC(=O)Nc3nc(-c4cc(C(F)(F)F)ccc4Cl)cs3)cccc2n(C)c1=O` [Example 56, N1-[4-(2-Chloro-5-trifuoromethylphenyl)-1,3-thiazol-2-yl]-2-(1,3-dimethyl-2,4-dioxo-1,2,3,4-tetrahydro-5-quinazolinyl)propanamide]: the inhibition at 1 µM amounted to 85%, the inhibition at 10 µM worked out at 99.8% and the IC50 is above 100 nM.
For the molecule `CC(C)CCOc1ccc(-c2csc(NC(=O)Cc3cccc4c3c(=O)n(C)c(=O)n4C)n2)cc1` [Example 19, N1-[4-(4-(3-Methylbutoxy)phenyl)-1,3-thiazol-2-yl]-2-(1,3-dimethyl-2,4-dioxo-1,2,3,4-tetrahydro-5-quinazolinyl)acetamide], the inhibition at 1 µM is 93%, the inhibition at 10 µM stood at 97.9% and the IC50 lay in the range of 50.1 to 100 nM.
With `Cn1c(=O)c2c(CC(=O)Nc3nc(-c4ccc(I)cc4)cs3)cccc2n(C)c1=O` [Example 13, N1-[4-(4-Iodophenyl)-1,3-thiazol-2yl]-2-(1,3-dimethyl-2,4-dioxo-1,2,3,4-tetrahydro-5-quinazolinyl)acetamide], the inhibition at 1 µM worked out at 79.2%, the inhibition at 10 µM amounted to 94.7% and the IC50 lay within 50.1 to 100 nM.
As to `Cn1c(=O)c2c(CC(=O)Nc3nc(-c4ccc(OCC5CC5)c(F)c4)cs3)cccc2n(C)c1=O` [Example 60, N1-[4-(4-Cyclopropylmethoxy-3-fluorophenyl)-1,3-thiazol-2yl]-2-(1,3-dimethyl-2,4-dioxo-1,2,3,4-tetrahydro-5-quinazolinyl)acetamide], the inhibition at 1 µM was determined as 1.31% and the inhibition at 10 µM amounted to 41.3%.
Turning to `Cc1cc(-c2csc(NC(=O)Cc3cccc4c3c(=O)n(C)c(=O)n4C)n2)ccc1Cl` [Example 58, N1-[4-(4-Chloro-3-methylphenyl)-1,3-thiazol-2yl]-2-(1,3-dimethyl-2,4-dioxo-1,2,3,4-tetrahydro-5-quinazolinyl)acetamide], the inhibition at 1 µM turned out to be 94.2%, the inhibition at 10 µM is 96.7% and the IC50 was above 100 nM.
In the case of `CC(C)c1ccc(-c2csc(NC(=O)Cc3cccc4c3c(=O)n(C)c(=O)n4C)n2)cc1` [Example 22, N1-[4-(4-isopropylphenyl)-1,3-thiazol-2-yl]-2-(1,3-dimethyl-2,4-dioxo-1,2,3,4-tetrahydro-5-quinazolinyl)acetamide], the inhibition at 1 µM was 95.3%, the inhibition at 10 µM worked out at 98% and the IC50 lay in the range of 50.1 to 100 nM.
The like results for `Cn1c(=O)c2c(CC(=O)Nc3nc(-c4c(F)ccc(C(F)(F)F)c4F)cs3)cccc2n(C)c1=O` [Example 68, N1-{4-[2,6-Difluoro-3-trifluoromethylphenyl]-1,3-thiazol-2-yl}-2-(1,3-dimethyl-2,4-dioxo-1,2,3,4-tetrahydro-5-quinazolinyl)acetamide] were, in that order, 84.6%, 98.6% and above 100 nM.
On to `Cn1c(=O)c2c(CC(=O)Nc3nc(-c4ccc(Cl)cc4Cl)cs3)cccc2n(C)c1=O` [Example 45, N1-[4-(2,4-Dichlorophenyl)-1,3-thiazol-2yl]-2-(1,3-dimethyl-2,4-dioxo-1,2,3,4-tetrahydro-5-quinazolinyl)acetamide], for which the inhibition at 1 µM was determined as 82.1%, the inhibition at 10 µM was 95.5% and the IC50 was above 100 nM.
Regarding `Cn1c(=O)c2c(CC(=O)Nc3nc(-c4cc(F)c(OC(F)F)c(F)c4)cs3)cccc2n(C)c1=O` [Example 69], the inhibition at 1 µM was found to be 99.9%, the inhibition at 10 µM was found to be 100% and the IC50 is below 50 nM.
The like results for `Cn1c(=O)c2c(CC(=O)Nc3nc(-c4cc(F)c(OCC5CC5)c(F)c4)cs3)cccc2n(C)c1=O` [Example 72, N1-[4-(4-Cyclopropylmethoxy-3,5-difluorophenyl)-1,3-thiazol-2-yl]-2-(1,3-dimethyl-2,4-dioxo-1,2,3,4-tetrahydroquinazolin-5-yl)acetamide] were, in that order, 95.4%, 96.5% and below 50 nM.
Consider `Cn1c(=O)c2c(CC(=O)Nc3nc(-c4ccc(OC(F)F)c(F)c4)cs3)cccc2n(C)c1=O` [Example 44, N1-[4-(4-Difluoromethoxyl-3-fluorophenyl)-1,3-thiazol-2-yl]-2-(1,3-dimethyl-2,4-dioxo-1,2,3,4-tetrahydro-5-quinazolinyl)acetamide], for which the inhibition at 1 µM came out at 46.2% and the inhibition at 10 µM amounted to 99.2%.
